Our source for the IC50 values is patent publication US20120277209A1, “PYRAZINE COMPOUNDS AS PHOSPHODIESTERASE 10 INHIBITORS” (Amgen Inc., priority 2009, published 2012).

Each structure is given as a SMILES string. Where only a bound is given, the exact number is not on record here.

The first test concerns the target PDE10 (UniProt Q9Y233). The test is described as follows: PDE10 enzyme inhibition, IMAP TR-FRET assay (MPDE10A7 Enzyme Activity and Inhibition). The format is biochemical. The conditions noted are these: IC50 class against PDE10; read-out: IC50. The essentials:
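PDE10A enzyme or tissue homogenate preincubated with compounds 30 min at room temperature, then fluorescein-labelled cAMP or cGMP added for 60 min. IMAP binding reagent stop, TR-FRET read. Values are mean IC50s, grouped into five potency classes.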
The IC50 is the concentration at which inhibition is half-maximal. Regarding `OCCC1CCN(c2nccnc2Oc2ccc(Nc3nc4ccccc4s3)cc2)CC1` [Example 86, 2-(1-(3-(4-(benzo[d]thiazol-2-ylamino)phenoxy)pyrazin-2-yl)piperidin-4-yl)ethanol], the IC50 was in the range of 25 to 100 nM.

`O=C(c1ccc(Oc2nccnc2OCCN2CCOCC2)cc1)c1nc2ccccc2[nH]1` [Example 172, (1H-benzo[d]imidazol-2-yl)(4-(3-(2-morpholinoethoxy)pyrazin-2-yloxy)phenyl)methanone]: the IC50 is 100 to 250 nM. Still for that read-out and setting: under `c1ccc2sc(Nc3ccc(Oc4nccnc4NC4CCCOC4)cc3)nc2c1` (stereo not drawn) [Example 58, N-(4-(3-(TETRAHYDRO-2H-PYRAN-3-YLAMINO)PYRAZIN-2-YLOXY)PHENYL)BENZO[D]THIAZOL-2-AMINE] stands 25 to 100 nM. On the same count and under the same terms, under `O=C(c1ccc(Oc2nccnc2OCCc2ccccn2)cc1)c1nc2ccccc2[nH]1` [Example 177, (1H-benzo[d]imidazol-2-yl)(4-(3-(2-(pyridin-2-yl)ethoxy)pyrazin-2-yloxy)phenyl)methanone] stands 25 to 100 nM; under `COc1ccccc1-c1nccnc1Oc1ccc(C(=O)c2nc3ccccc3[nH]2)cc1` [Example 114, (1H-benzo[d]imidazol-2-yl)(4-(3-(2-methoxyphenyl)pyrazin-2-yloxy)phenyl)methanone], 25 to 100 nM. On the same count and under the same terms, under `CC(F)C(=O)N1CCC(c2nccnc2Oc2ccc(Nc3nc4ccccc4s3)cc2)CC1` (stereo not drawn) [Example 235, 1-(4-(3-(4-(benzo[d]thiazol-2-ylamino)phenoxy)pyrazin-2-yl)piperidin-1-yl)-2-fluoropropan-1-one] stands less than 25 nM; under `CC(=O)N1CCC(c2nccnc2Oc2ccc(Nc3nc4ccccc4s3)cc2)C1` (stereo not drawn) [Example 241, 1-(3-(3-(4-(benzo[d]thiazol-2-ylamino)phenoxy)pyrazin-2-yl)pyrrolidin-1-yl)ethanone], less than 25 nM; under `c1ccc2sc(Nc3ccc(Oc4nccnc4-c4cncnc4)cc3)nc2c1` [Example 143, N-(4-(3-(pyrimidin-5-yl)pyrazin-2-yloxy)phenyl)benzo[d]thiazol-2-amine], less than 25 nM. As for `COC[C@@H]1CCCN1c1nccnc1Oc1ccc(Nc2nc3ccccc3s2)cc1` [Example 57, (S)—N-(4-(3-(2-(METHOXYMETHYL)PYRROLIDIN-1-YL)PYRAZIN-2-YLOXY)PHENYL)BENZO[D]THIAZOL-2-AMINE], the IC50 is less than 25 nM.

The test is the same for the next values; noted with them: PDE10 enzyme inhibition; average IC50 data for each compound; read-out: Average IC50.
On to `OCc1ccc(-c2nccnc2Oc2ccc(Nc3nc4ccccc4s3)cc2)cn1` [drawing 804], for which the IC50 was found to be 4.12 nM.

For `COC(=O)N1CCC(c2nccnc2Oc2ccc(C(=O)c3nc4ccccc4[nH]3)cc2)CC1` [drawing 971], the IC50 is 0.0615 nM. Same read-out and setting: under `COc1cccc(-c2nccnc2Oc2ccc(Nc3nc4ccccc4s3)cc2)c1` [drawing 740] stands 96.1 nM; under `c1ccc2sc(Nc3ccc(Oc4nccnc4-c4cnc5[nH]ccc5c4)cc3)nc2c1` [drawing 765], 76 nM; under `c1cncc(-c2nccnc2Oc2ccc(Nc3nc4ccccc4s3)cc2)c1` [drawing 823], 10.4 nM.

In the case of `CC(=O)N1CC[C@@H](c2nccnc2Oc2ccc(Nc3nc4ccccc4s3)cc2)C1` (stereo in doubt), the IC50 amounted to 1.82 nM. For `c1ccc2sc(Nc3ccc(Oc4nccnc4-c4ccc(N5CCOCC5)cc4)cc3)nc2c1` [drawing 763], the IC50 turned out to be 1070 nM.

On to `O=C(c1ccc(Oc2nccnc2Cl)cc1)c1nc2ncccc2[nH]1`, for which the IC50 was found to be 171 nM.

Take `C[C@H](Cc1ccccn1)NC(=O)c1nccnc1Oc1ccc(C(=O)c2nc3ccccc3[nH]2)cc1` (racemic): the 50% inhibitory concentration (IC50) came to 4.72 nM. `COc1ncc(F)cc1-c1nccnc1Oc1ccc(C(=O)c2nc3ccccc3[nH]2)cc1` [drawing 942]: the IC50 stood at 2.95 nM. The same measure, in the same setting: in the case of `Fc1cc(Oc2nccnc2C2CCOCC2)ccc1Nc1nc2ccccc2s1` [drawing 877] it was 2.64 nM.

The same test, now with this note: PDE10 enzyme inhibition; chiral compounds separated from racemic mixtures; read-out: IC50.
As to `O[C@H]1CCC[C@H](c2nccnc2Oc2ccc(Nc3nc4ccccc4s3)cc2)C1` [Example 275, (1S,3S)-3-(3-(4-(benzo[d]thiazol-2-ylamino)phenoxy)pyrazin-2-yl)cyclohexanol], the IC50 was less than 25 nM.
